# Test results: patent US10588865B2, “Tamper resistant oral opioid agonist formulations” (Purdue Pharma L.P., priority 2000, dated 2020)
# Where a name gives a salt, the structure may show the parent alone.
# What was measured:
# [1] = in comparison to a 15 mg dose of hydrocodone
# Source text: In certain preferred embodiments, the opioid agonist is oxycodone or hydrocodone.
# [2] = after oral doses; cited from earlier work
# [3] = cited from earlier work
# man = conditions: cited from earlier work
# [4] = system: methadone-dependent subjects; conditions: immediate-release naltrexone, interim analysis
# [5] = system: morphine-dependent subjects; assay: Example 17: precipitated withdrawal after hydrocodone immediate release tablets with naltrexone
# normal subjects = assay: Example 19: effect of naltrexone on subjective and physiological effects of 15 mg hydrocodone; type: in vivo
# [6] = suggested by clinical data of examples 17, 18 and 19
compound,measurement,setting,value
COc1ccc2c3c1O[C@H]1[C@@H](O)C=C[C@H]4[C@@H](C2)N(C)CC[C@@]341 [Codeine],Calculated Dose (equianalgesic dose),[1],90.0 mg
"COc1ccc2c3c1OC1C(=O)CC[C@H]4[C@@H](C2)N(C)CC[C@]314 (stereo partly drawn) [Hydrocodone, 4,5-epoxy-3-methoxy-17-methylmorphinan-6-one]",Calculated Dose (equianalgesic dose),[1],15.0 mg
CN1CC[C@]23CCCC[C@H]2[C@H]1Cc1ccc(O)cc13 [Levorphanol],Calculated Dose (equianalgesic dose),[1],1.8 mg
CCC(=O)C(CC(C)N(C)C)(c1ccccc1)c1ccccc1 (stereo not drawn) [Methadone],Calculated Dose (equianalgesic dose),[1],9.0 mg
"COc1ccc2c3c1O[C@H]1C(=O)CC[C@@]4(O)[C@@H](C2)N(C)CC[C@]314 [Oxycodone, 4,5-expoxy-14-hydroxy-3-methoxy-17-methylmorphinan-6-one]",Calculated Dose (equianalgesic dose),[1],13.5 mg
C[C@H]1[C@H]2Cc3ccc(O)cc3[C@]1(C)CCN2CC1CC1 [cyclazocine],duration of action,[2],~24 h
"O=C1CC[C@@]2(O)[C@H]3Cc4ccc(O)c5c4[C@@]2(CCN3CC2CC2)[C@H]1O5 [hydrochloride salt of naltrexone, Naltrexone HCl]",water solubility,[3],very water-soluble
same,solubility in water,[3]; hydrochloride salt,about 100 mg/cc
C=CCN1CC[C@]23c4c5ccc(O)c4O[C@H]2C(=O)CC[C@@]3(O)[C@H]1C5 [naloxone],block of the effect of 25 mg of heroin,man; One mg intravenously,completely block
same,dose that prevents or promptly reverses the effects of morphine-like opioid agonist,man; given intramuscularly or intravenously in man,0.4 to 0.8 mg
same,potency after oral administration compared with parenteral administration,"man; oral, first passage through the liver",significantly lower potency
O=C1CC[C@@]2(O)[C@H]3Cc4ccc(O)c5c4[C@@]2(CCN3CC2CC2)[C@H]1O5 [naltrexone],dose able to elicit the signs and symptoms of withdrawal,[4],0.5 mg
same,liking of the agonist,"[5]; 1 mg naltrexone dose with hydrocodone immediate release tablets, opioid-dependent subjects",less liking of the agonist relative to the combination with placebo
same,withdrawal signs,[5]; subjects in example 17 receiving the 0.25-mg,absence of withdrawal signs
same,"dose able to antagonize several centrally mediated opioid effects of hydrocodone, including pupillary miosis",normal subjects; 15 mg hydrocodone,0.4 mg
same,"bio-available, immediate-release dose that will not affect analgesia to any significant degree",normal subjects; [6],0.125 mg
same,prompt release of bio-available drug that will affect analgesia,normal subjects; [6],≥ 0.25 mg
Meperidine,Calculated Dose (equianalgesic dose),[1],135.0 mg
